Laboratory results taken from US12162881B2, “Forms and compositions of inhibitors of JAK2” (Ajax Therapeutics, Inc., priority 2021, dated 2024).
Converted amounts (≈) assume the structure as drawn. “And” between values parts separate entries of the source, which are not always exact repeats. Identical values can stand only once. One block for each compound: values may come before it.

Key:
Type in all cases: physicochemical
[1] = Physical Stability of Selected Solid Forms (vacuum oven, XRPD); conditions: vac. oven
[2] = Drying experiments of solvated Compound 1 materials (vacuum oven, XRPD); conditions: vac., 1 d
Method: Drying experiments: Damp and solvated Compound 1 materials were placed in vacuum ovens set to ambient temperature or 80° C. for 1 day. Dried solids were analyzed by XRPD.

[3] = Dynamic vapor sorption (DVS) hygroscopicity; conditions: for Hysteresis: in % (unit assumed); for DVS weight loss upon desorption as water / DVS weight loss upon desorption: desorption from 95% to 5% RH; for post-DVS XRPD: solid recovered after DVS cycle; for DVS hysteresis observation: sorption/desorption 5-95% RH
Method: Automated vapor sorption (VS) data were collected on a Surface Measurement System DVS Intrinsic instrument. Samples were not dried prior to analysis. Sorption and desorption data were collected over a range from 5% to 95% RH at 10% RH increments under a nitrogen purge. The equilibrium criterion used for analysis was less than 0.0100% weight change in 5 minutes with a maximum equilibration time of 3 hours. Data were not corrected for the initial moisture content of the samples.

[4] = Approximate Aqueous Solubility of Selected Solid Forms; conditions: ambient temperature; for solubility: water, thermodynamic from solid
Method: Aliquots of various solvents were added to measured amounts of provided compounds with agitation at ambient temperature until complete dissolution was achieved, as judged by visual observation. If dissolution occurred after the addition of the first aliquot, values were reported as “>”. Results are shown in Table 18, where A is <2 mg/mL; B is <1 mg/mL.

[5] = Solubility Study of Compound 1 Form 1 (solvent aliquot addition, visual observation); conditions: thermodynamic from solid, read-out: Solubility at ambient temperature
Method: Aliquots of various solvents were added to measured amounts of Compound 1 Form 1 with agitation at ambient temperature until complete dissolution was achieved, as judged by visual observation. […] See Table 15 below, where A is 5-20 mg/mL; B is 1-4.9 mg/mL; and C is <1 mg/mL.

[6] = visual observation, read-out: Estimated Aqueous Solubility

Compound: CC(=O)Nc1cc(Oc2cnc3nc(Nc4cc(C(F)(F)F)cn(C)c4=O)n(C)c3c2C#N)ccn1.CS(=O)(=O)O [Compound 4 Form A, N-(4-((7-cyano-1-methyl-2-((1-methyl-2-oxo-5-(trifluoromethyl)-1,2-dihydropyridin-3-yl)amino)-1H-imidazo[4,5-h]pyridin-6-yl)oxy)pyridin-2-yl)acetamide mesylate]
XRPD Result (physical stability) ([1]; 45° C., 2 d): Compound 4 Form B

Compound: N-(4-((7-cyano-1-methyl-2-((1-methyl-2-oxo-5-(trifluoromethyl)-1,2-dihydropyridin-3-yl)amino)-1H-imidazo[4,5-b]pyridin-6-yl)oxy)pyridin-2-yl)acetamide edisylate [Edisylate Form A]
Estimated Aqueous Solubility (mg/mL) ([4]; visual observation): B (B is <1 mg/mL) | XRPD Result (physical stability) ([1]; RT, 5 d): Edisylate Form C

Compound: Br.CC(=O)Nc1cc(Oc2cnc3nc(Nc4cc(C(F)(F)F)cn(C)c4=O)n(C)c3c2C#N)ccn1 [Compound 3 Form A, N-(4-((7-cyano-1-methyl-2-((1-methyl-2-oxo-5-(trifluoromethyl)-1,2-dihydropyridin-3-yl)amino)-1H-imidazo[4,5-b]pyridin-6-yl)oxy)pyridin-2-yl)acetamide hydrobromide]
XRPD Result (physical stability) ([1]; 45° C., 2 d): Compound 3 Form A +

Compound: CC(=O)Nc1cc(Oc2cnc3nc(Nc4cc(C(F)(F)F)cn(C)c4=O)n(C)c3c2C#N)ccn1.O=S(=O)(O)c1ccccc1 [Besylate Form A, N-(4-((7-cyano-1-methyl-2-((1-methyl-2-oxo-5-(trifluoromethyl)-1,2-dihydropyridin-3-yl)amino)-1H-imidazo[4,5-b]pyridin-6-yl)oxy)pyridin-2-yl)acetamide besylate]
solubility [4, 6]: < 1000 µg/mL | XRPD Result (physical stability) ([1]; RT, 5 d): Besylate Form C

More lines, now with the values ahead:

XRPD Result after drying ([2]; 80° C.): Form D + peaks (some disorder) | XRPD Result after drying ([2]; RT, listed as Form D): Form D^a
Compound: CC(=O)Nc1cc(Oc2cnc3nc(Nc4cc(C(F)(F)F)cn(C)c4=O)n(C)c3c2C#N)ccn1 [Compound 1 Form D, N-(4-((7-cyano-1-methyl-2-((1-methyl-2-oxo-5-(trifluoromethyl)-1,2-dihydropyridin-3-yl)amino)-1H-imidazo[4,5-b]pyridin-6-yl)oxy)pyridin-2-yl)acetamide]

XRPD Result (physical stability) ([1]; RT, 5 d): Compound 5 Form C
Compound: CC(=O)Nc1cc(Oc2cnc3nc(Nc4cc(C(F)(F)F)cn(C)c4=O)n(C)c3c2C#N)ccn1 [Compound 5 Form A, N-(4-((7-cyano-1-methyl-2-((1-methyl-2-oxo-5-(trifluoromethyl)-1,2-dihydropyridin-3-yl)amino)-1H-imidazo[4,5-b]pyridin-6-yl)oxy)pyridin-2-yl)acetamide camsylate]

XRPD Result after drying ([2]; RT, listed as Form G): Form B + peaks (some disorder)
Compound: CC(=O)Nc1cc(Oc2cnc3nc(Nc4cc(C(F)(F)F)cn(C)c4=O)n(C)c3c2C#N)ccn1 [Compound 1 Form G, N-(4-((7-cyano-1-methyl-2-((1-methyl-2-oxo-5-(trifluoromethyl)-1,2-dihydropyridin-3-yl)amino)-1H-imidazo[4,5-b]pyridin-6-yl)oxy)pyridin-2-yl)acetamide]

Desorp Mass Change (%) ([3]; Target RH 5.0%): −0.0582% | Sorp Mass Change (%) ([3]; Target RH 5.0%): 0.0009% | Desorp Mass Change (%) ([3]; Target RH 15.0%): 0.0326% | Sorp Mass Change (%) ([3]; Target RH 15.0%): 0.0521% | Hysteresis ([3]; Target RH 15.0%): −0.0195 | Desorp Mass Change (%) ([3]; Target RH 25.0%): 0.0900% | Sorp Mass Change (%) ([3]; Target RH 25.0%): 0.0998% | Hysteresis ([3]; Target RH 25.0%): −0.0098 | Desorp Mass Change (%) ([3]; Target RH 35.0%): 0.1559% | Sorp Mass Change (%) ([3]; Target RH 35.0%): 0.1539% | Hysteresis ([3]; Target RH 35.0%): 0.0020 | Desorp Mass Change (%) ([3]; Target RH 45.0%): 0.2304% | Sorp Mass Change (%) ([3]; Target RH 45.0%): 0.2007% | Hysteresis ([3]; Target RH 45.0%): 0.0297 | Desorp Mass Change (%) ([3]; Target RH 55.0%): 0.3159% | Sorp Mass Change (%) ([3]; Target RH 55.0%): 0.2634% | Hysteresis ([3]; Target RH 55.0%): 0.0525 | Desorp Mass Change (%) ([3]; Target RH 65.0%): 0.4283% | Sorp Mass Change (%) ([3]; Target RH 65.0%): 0.3387% | Hysteresis ([3]; Target RH 65.0%): 0.0896 | Desorp Mass Change (%) ([3]; Target RH 75.0%): 0.5577% | Sorp Mass Change (%) ([3]; Target RH 75.0%): 0.5032% | Hysteresis ([3]; Target RH 75.0%): 0.0545 | Desorp Mass Change (%) ([3]; Target RH 85.0%): 0.6871% | Sorp Mass Change (%) ([3]; Target RH 85.0%): 0.6403% | Hysteresis ([3]; Target RH 85.0%): 0.0468 | Desorp Mass Change (%) ([3]; Target RH 95.0%): 0.9477% | Sorp Mass Change (%) ([3]; Target RH 95.0%): 0.9477% | DVS weight loss upon desorption as water [3]: 0.3 mol/mol H2O | DVS weight loss upon desorption ([3]; hydrochloride): 1.01% and 1.0059% | post-DVS XRPD [3]: Compound 2 Form A | DVS weight gain as water uptake ([3]; sorption from 5% to 95% RH): 0.3 mol/mol H2O | DVS weight gain ([3]; sorption from 5% to 95% RH, hydrochloride): 0.95% and 0.9468% | DVS hysteresis observation [3]: No hysteresis was observed | solubility [4, 6]: < 2000 µg/mL | solubility ([4]; read-out: Aqueous solubility, visually approximated): < 2000 µg/mL
Compound: CC(=O)Nc1cc(Oc2cnc3nc(Nc4cc(C(F)(F)F)cn(C)c4=O)n(C)c3c2C#N)ccn1.Cl [Compound 2 Form A, N-(4-((7-cyano-1-methyl-2-((1-methyl-2-oxo-5-(trifluoromethyl)-1,2-dihydropyridin-3-yl)amino)-1H-imidazo[4,5-b]pyridin-6-yl)oxy)pyridin-2-yl)acetamide hydrochloride]

Desorp Mass Change (%) ([3]; Target RH 5.0%): −0.011% | Sorp Mass Change (%) ([3]; Target RH 5.0%): 0.001% | Desorp Mass Change (%) ([3]; Target RH 15.0%): 0.103% | Sorp Mass Change (%) ([3]; Target RH 15.0%): 0.068% | Hysteresis ([3]; Target RH 15.0%): 0.036 | Desorp Mass Change (%) ([3]; Target RH 25.0%): 3.654% | Sorp Mass Change (%) ([3]; Target RH 25.0%): 0.118% | Hysteresis ([3]; Target RH 25.0%): 3.536 | Desorp Mass Change (%) ([3]; Target RH 35.0%): 3.877% | Sorp Mass Change (%) ([3]; Target RH 35.0%): 0.292% | Hysteresis ([3]; Target RH 35.0%): 3.585 | Desorp Mass Change (%) ([3]; Target RH 45.0%): 4.084% | Sorp Mass Change (%) ([3]; Target RH 45.0%): 0.396% | Hysteresis ([3]; Target RH 45.0%): 3.687 | Desorp Mass Change (%) ([3]; Target RH 55.0%): 4.203% | Sorp Mass Change (%) ([3]; Target RH 55.0%): 3.757% | Hysteresis ([3]; Target RH 55.0%): 0.446 | Desorp Mass Change (%) ([3]; Target RH 65.0%): 4.403% | Sorp Mass Change (%) ([3]; Target RH 65.0%): 4.049% | Hysteresis ([3]; Target RH 65.0%): 0.354 | Desorp Mass Change (%) ([3]; Target RH 75.0%): 4.578% | Sorp Mass Change (%) ([3]; Target RH 75.0%): 4.282% | Hysteresis ([3]; Target RH 75.0%): 0.296 | Desorp Mass Change (%) ([3]; Target RH 85.0%): 4.677% | Sorp Mass Change (%) ([3]; Target RH 85.0%): 4.534% | Hysteresis ([3]; Target RH 85.0%): 0.142 | Desorp Mass Change (%) ([3]; Target RH 95.0%): 4.804% | Sorp Mass Change (%) ([3]; Target RH 95.0%): 4.804% | DVS weight loss ([3]; desorption from 25% to 15% RH): 3.55% | DVS weight loss as water ([3]; desorption from 25% to 15% RH): 1.0 mol/mol H2O | DVS weight loss upon desorption [3]: 4.82% | DVS weight loss upon desorption as water [3]: 1.4 mol/mol H2O | post-DVS XRPD [3]: very similar | DVS weight gain ([3]; sorption from 5% to 95% RH): 4.80% | DVS weight gain as water uptake ([3]; sorption from 5% to 95% RH): 1.4 mol/mol H2O | DVS weight gain ([3]; sorption from 45% to 55% RH): 3.36% | DVS weight gain as water uptake ([3]; sorption from 45% to 55% RH): 1.0 mol/mol H2O | DVS hysteresis observation [3]: hysteresis evident | solubility ([5]; organic solvent or mixture, solvent ACN): < 1000 µg/mL | solubility ([5]; organic solvent or mixture, solvent DCM): < 1000 µg/mL | solubility ([5]; organic solvent or mixture, solvent DMA): 5000 to 20000 µg/mL (≈ 10000 to 40100 µM) | solubility ([5]; organic solvent or mixture, solvent MeOH): < 1000 µg/mL | solubility ([5]; organic solvent or mixture, solvent TFE): 5000 to 20000 µg/mL (≈ 10000 to 40100 µM) | solubility ([5]; organic solvent or mixture, solvent THF): 1000 to 4900 µg/mL (≈ 2010 to 9830 µM) | solubility ([5]; organic solvent or mixture, solvent acetone): < 1000 µg/mL | solubility ([5]; water, solvent H2O): < 1000 µg/mL
Compound: CC(=O)Nc1cc(Oc2cnc3nc(Nc4cc(C(F)(F)F)cn(C)c4=O)n(C)c3c2C#N)ccn1 [Compound 1 Form 1, N-(4-((7-cyano-1-methyl-2-((1-methyl-2-oxo-5-(trifluoromethyl)-1,2-dihydropyridin-3-yl)amino)-1H-imidazo[4,5-b]pyridin-6-yl)oxy)pyridin-2-yl)acetamide]

solubility [4, 6]: < 1000 µg/mL | XRPD Result (physical stability) ([1]; RT, 5 d): Esylate Form A
Compound: CC(=O)Nc1cc(Oc2cnc3nc(Nc4cc(C(F)(F)F)cn(C)c4=O)n(C)c3c2C#N)ccn1.CCS(=O)(=O)O [Esylate Form A, N-(4-((7-cyano-1-methyl-2-((1-methyl-2-oxo-5-(trifluoromethyl)-1,2-dihydropyridin-3-yl)amino)-1H-imidazo[4,5-b]pyridin-6-yl)oxy)pyridin-2-yl)acetamide esylate]

solubility [4, 6]: < 1000 µg/mL | XRPD Result (physical stability) ([1]; RT, 5 d): Phosphate Form A
Compound: CC(=O)Nc1cc(Oc2cnc3nc(Nc4cc(C(F)(F)F)cn(C)c4=O)n(C)c3c2C#N)ccn1.O=P(O)(O)O [Phosphate Form A, N-(4-((7-cyano-1-methyl-2-((1-methyl-2-oxo-5-(trifluoromethyl)-1,2-dihydropyridin-3-yl)amino)-1H-imidazo[4,5-b]pyridin-6-yl)oxy)pyridin-2-yl)acetamide phosphate]
